Results on 21 compounds are retold here after patent US5854204A, “Aβ peptides that modulate β-amyloid aggregation” (priority 1996, dated 1998).

Read-outs that look alike come from different tables or passages of the source. Numbered stars: 1 amine (or outer) side, 2 acyl side, 3 side chain; on linkers, the order of the positions; unused ones are H or OH. Square brackets hold non-standard residues; d marks the D form. Ends that are not written are not given here. Peptide text beside a SMILES is read from it. * marks the point of attachment. Cholyl = C[C@H](CCC(=O)*)[C@H]1CC[C@H]2[C@@H]3[C@H](O)C[C@@H]4C[C@H](O)CC[C@]4(C)[C@H]3C[C@H](O)[C@]12C; X2 = O=C(C1(O)C[C@H](O)[C@@H](N[*:1])[C@H]([C@H](O)[C@H](O)CO)O1)[*:2]; Tyr(3-I) = N[C@@H](Cc1ccc(O)c(I)c1)C(=O)O

The target in assay [1] is T1, Aβ1-40 (Homo sapiens, UniProt P05067).
T1 sequence (P05067 672-711): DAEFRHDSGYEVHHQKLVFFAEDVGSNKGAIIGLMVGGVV
Description: (§1) The nucleation assay is employed to determine the ability of test compounds to alter (e.g. inhibit) the early events in formation of β-AP fibers from monomeric β-AP. […] The time delay before polymerization of β-AP monomer can be quantified as well as the extent of formation of insoluble fiber by light scattering (turbidity). Polymerization reaches equilibrium when the maximum turbidity reaches a plateau. […] The threshold of sensitivity for the measurement of turbidity is in the range of 15-20 μM β-AP. […] This assay can be performed using stirring or shaking to accelerate polymerization, thereby increasing the speed of the assay. Moreover the assay can be adapted to a 96-well plate format to screen multiple compounds.
(§2) HFIP-solubilized peptide is sonicated in a waterbath sonicator for 5 min at highest setting, then evaporated to dryness under a stream of argon. […] Test compounds are dissolved in DMSO at a 100× concentration. […] Ten microliters of the mixture is then added to the bottom of a well of a Corning Costar ultra low binding 96-well plate (Corning Costar, Cambridge Mass.; cat. No. 2500). […] The plate is then returned to the shaker and shaken continuously for 5 hours. Turbidity readings are taken at 15 minute intervals.
(§3) Accordingly a fold increase in lag time of 1.0 indicates no change in lag time, whereas numbers >1.0 indicate an increase in lag time. The "% inhibition of plateau", which is a measure of the ability of the compound to decrease the total amount of aggregation, refers to the reduction of the final turbidity in the presence of the test compound expressed as a percent of the control without the test compound.
Assay [2] deals with T1, Aβ1-40. Kind of assay: biochemical. The note with it: read-out: % Inucl'n (percent reduction in maximum turbidity).
Description: as §1, §2, §3
The mark [3] stands for this setting: Table VI, unmodified peptides, 100 mole %.
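Note: Aβ nucleation assay tracking fiber polymerization from monomer by turbidity (light scattering), shaken continuously in 96-well plates, read every 15 min over 5 h, compared with compound-free control.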

With `CC[C@H](C)[C@H](NC(=O)[C@H](C)NC(=O)CNC(=O)[C@H](CCCCN)NC(=O)[C@H](CC(N)=O)NC(=O)[C@H](CO)NC(=O)[C@H](Cc1ccccc1)NC(=O)[C@H](Cc1ccccc1)NC(=O)[C@@H](NC(=O)[C@H](CC(C)C)NC(=O)[C@H](CCCCN)NC(=O)[C@H](CCC(N)=O)NC(=O)[C@H](Cc1c[nH]cn1)NC(=O)[C@H](Cc1c[nH]cn1)NC(=O)[C@@H](NC(=O)[C@H](CCC(=O)O)NC(=O)[C@H](Cc1ccc(O)cc1)NC(=O)CNC(=O)[C@H](CO)NC(=O)[C@H](CC(=O)O)NC(=O)[C@H](Cc1c[nH]cn1)NC(=O)[C@H](CCCNC(=N)N)NC(=O)[C@H](Cc1ccccc1)NC(=O)[C@H](CCC(=O)O)NC(=O)[C@H](C)NC(=O)[C@@H](N)CC(=O)O)C(C)C)C(C)C)C(=O)N[C@H](C(=O)NCC(=O)N[C@@H](CC(C)C)C(=O)N[C@@H](CCSC)C(=O)N[C@H](C(=O)NCC(=O)NCC(=O)N[C@H](C(=O)N[C@H](C(=O)O)C(C)C)C(C)C)C(C)C)[C@@H](C)CC` [PPI-249, Aβ1-20, 26-40 (Δ21-25)], the “% Inhibition of Plateau” value on Aβ1-40 [1] is recorded as ~ 0%. Besides, the “Fold Increase in Lag Time” value at Aβ1-40 [1] (setting [3]) was determined as 2.37 fold.

On to `CC[C@H](C)[C@H](NC(=O)[C@H](C)NC(=O)CNC(=O)[C@H](CCCCN)NC(=O)[C@H](CC(N)=O)NC(=O)[C@H](CO)NC(=O)CNC(=O)[C@@H](NC(=O)[C@H](CC(=O)O)NC(=O)[C@H](CCC(=O)O)NC(=O)[C@H](C)NC(=O)[C@H](CCC(N)=O)NC(=O)[C@H](Cc1c[nH]cn1)NC(=O)[C@H](Cc1c[nH]cn1)NC(=O)[C@@H](NC(=O)[C@H](CCC(=O)O)NC(=O)[C@H](Cc1ccc(O)cc1)NC(=O)CNC(=O)[C@H](CO)NC(=O)[C@H](CC(=O)O)NC(=O)[C@H](Cc1c[nH]cn1)NC(=O)[C@H](CCCNC(=N)N)NC(=O)[C@H](Cc1ccccc1)NC(=O)[C@H](CCC(=O)O)NC(=O)[C@H](C)NC(=O)[C@@H](N)CC(=O)O)C(C)C)C(C)C)C(=O)N[C@H](C(=O)NCC(=O)N[C@@H](CC(C)C)C(=O)N[C@@H](CCSC)C(=O)N[C@H](C(=O)NCC(=O)NCC(=O)N[C@H](C(=O)N[C@H](C(=O)O)C(C)C)C(C)C)C(C)C)[C@@H](C)CC` [PPI-250, Aβ1-15, 21-40 (Δ16-20)], for which the “% Inhibition of Plateau” value on Aβ1-40 [1] is given as ~ 0%. The “Fold Increase in Lag Time” value at Aβ1-40 [1] (setting [3]) was found to be 1.55 fold.

As to `CC[C@H](C)[C@H](NC(=O)[C@H](C)NC(=O)CNC(=O)[C@H](CCCCN)NC(=O)[C@H](CC(N)=O)NC(=O)[C@H](CO)NC(=O)CNC(=O)[C@@H](NC(=O)[C@H](CC(=O)O)NC(=O)[C@H](CCC(=O)O)NC(=O)[C@H](C)NC(=O)[C@H](Cc1ccccc1)NC(=O)[C@H](Cc1ccccc1)NC(=O)[C@@H](NC(=O)[C@H](CC(C)C)NC(=O)[C@H](CCCCN)NC(=O)[C@H](Cc1ccc(O)cc1)NC(=O)CNC(=O)[C@H](CO)NC(=O)[C@H](CC(=O)O)NC(=O)[C@H](Cc1c[nH]cn1)NC(=O)[C@H](CCCNC(=N)N)NC(=O)[C@H](Cc1ccccc1)NC(=O)[C@H](CCC(=O)O)NC(=O)[C@H](C)NC(=O)[C@@H](N)CC(=O)O)C(C)C)C(C)C)C(=O)N[C@H](C(=O)NCC(=O)N[C@@H](CC(C)C)C(=O)N[C@@H](CCSC)C(=O)N[C@H](C(=O)NCC(=O)NCC(=O)N[C@H](C(=O)N[C@H](C(=O)O)C(C)C)C(C)C)C(C)C)[C@@H](C)CC` [PPI-251, Aβ1-10, 16-40 (Δ11-15)], the “% Inhibition of Plateau” value at Aβ1-40 [1] was ~ 0%. In addition, the “Fold Increase in Lag Time” value at Aβ1-40 [1] (setting [3]) is listed as ~ 1.2 fold.

Regarding `CC(C)C[C@H](NC(=O)[C@H](CCCCN)NC(=O)[C@H](CCC(N)=O)NC(=O)[C@H](Cc1c[nH]cn1)NC(=O)CC[C@@H](C)[C@H]1CC[C@H]2[C@@H]3[C@H](O)C[C@@H]4C[C@H](O)CC[C@]4(C)[C@H]3C[C@H](O)[C@]12C)C(=O)N[C@H](C(=O)N[C@@H](Cc1ccccc1)C(=O)N[C@@H](Cc1ccccc1)C(N)=O)C(C)C` [PPI-315] (Cholyl-HQKLVFF-NH2), the inhibition at 33 % at Aβ1-40 [2] amounted to 5%.

On to `CC(=O)N[C@H]1[C@H]([C@H](O)[C@H](O)CO)OC(O)(C(=O)N[C@@H](Cc2c[nH]cn2)C(=O)N[C@@H](CCC(N)=O)C(=O)N[C@@H](CCCCN)C(=O)N[C@@H](CC(C)C)C(=O)N[C@H](C(=O)N[C@@H](Cc2ccccc2)C(=O)N[C@@H](Cc2ccccc2)C(N)=O)C(C)C)C[C@@H]1O` (stereo partly shown) [PPI-316] (Ac-[X2]HQKLVFF-NH2), for which the inhibition at 100 % on Aβ1-40 [2] is -15%.

In the case of `CC(C)C[C@H](NC(=O)[C@H](CCCCN)NC(=O)[C@H](CCC(N)=O)NC(=O)[C@H](Cc1c[nH]cn1)NC(=O)[C@H](Cc1c[nH]cn1)NC(=O)[C@@H](NC(=O)[C@H](CCC(=O)O)NC(=O)[C@H](Cc1ccc(O)cc1)NC(=O)CNC(=O)[C@H](CO)NC(=O)[C@H](CC(=O)O)NC(=O)[C@H](Cc1c[nH]cn1)NC(=O)CC[C@@H](C)[C@H]1CC[C@H]2[C@@H]3[C@H](O)C[C@@H]4C[C@H](O)CC[C@]4(C)[C@H]3C[C@H](O)[C@]12C)C(C)C)C(=O)N[C@H](C(=O)N[C@@H](Cc1ccccc1)C(N)=O)C(C)C` [PPI-321] (Cholyl-HDSGYEVHHQKLVF-NH2), the “inhibitory activity on Aβ aggregation” value at Aβ1-40 [1] is on record as “loss of inhibitory activity”. The “Fold Increase in Lag Time” value was 1.4 fold at Aβ1-40 [1] (Table III, 33 mole %) and 1.2 fold on Aβ1-40 [1] (Table IV, 100 mole %).

`CC(C)[C@H](NC(=O)[C@H](CCC(=O)O)NC(=O)[C@H](Cc1ccc(O)cc1)NC(=O)CNC(=O)[C@H](CO)NC(=O)[C@H](CC(=O)O)NC(=O)[C@H](Cc1c[nH]cn1)NC(=O)CC[C@@H](C)[C@H]1CC[C@H]2[C@@H]3[C@H](O)C[C@@H]4C[C@H](O)CC[C@]4(C)[C@H]3C[C@H](O)[C@]12C)C(=O)N[C@@H](Cc1c[nH]cn1)C(=O)N[C@@H](Cc1c[nH]cn1)C(N)=O` [PPI-331] (Cholyl-HDSGYEVHH-NH2): the “% Inhibition of Plateau” value on Aβ1-40 [1] was 29%.

In the case of `C[C@H](CCC(=O)N[C@@H](Cc1c[nH]cn1)C(=O)N[C@@H](CC(=O)O)C(=O)N[C@@H](CO)C(=O)NCC(=O)N[C@@H](Cc1ccc(O)cc1)C(N)=O)[C@H]1CC[C@H]2[C@@H]3[C@H](O)C[C@@H]4C[C@H](O)CC[C@]4(C)[C@H]3C[C@H](O)[C@]12C` [PPI-339] (Cholyl-HDSGY-NH2), the “% Inhibition of Plateau” value at Aβ1-40 [1] stood at 13%.

`CC(C)C[C@H](NC(=O)[C@H](CCCCN)NC(=O)[C@H](CCC(N)=O)NC(=O)[C@H](Cc1c[nH]cn1)NC(=O)[C@H](Cc1c[nH]cn1)NC(=O)[C@@H](NC(=O)CC[C@@H](C)[C@H]1CC[C@H]2[C@@H]3[C@H](O)C[C@@H]4C[C@H](O)CC[C@]4(C)[C@H]3C[C@H](O)[C@]12C)C(C)C)C(=O)N[C@H](C(=O)N[C@@H](Cc1ccccc1)C(=O)N[C@@H](Cc1ccccc1)C(=O)O)C(C)C` [PPI-346] (Cholyl-VHHQKLVFF-OH): the “% Inhibition of Plateau” value at Aβ1-40 [1] is reported as ~ 0%.

In the case of `CC(C)C[C@H](NC(=O)[C@H](CCCCN)NC(=O)[C@H](CCC(N)=O)NC(=O)CC[C@@H](C)[C@H]1CC[C@H]2[C@@H]3[C@H](O)C[C@@H]4C[C@H](O)CC[C@]4(C)[C@H]3C[C@H](O)[C@]12C)C(=O)N[C@H](C(=O)N[C@@H](Cc1ccccc1)C(=O)O)C(C)C` [PPI-366] (Cholyl-QKLVF-OH), the “% Inhibition of Plateau” value at Aβ1-40 [1] was ~ 0%.

For `CC(C)C[C@H](NC(=O)CC[C@@H](C)[C@H]1CC[C@H]2[C@@H]3[C@H](O)C[C@@H]4C[C@H](O)CC[C@]4(C)[C@H]3C[C@H](O)[C@]12C)C(=O)N[C@H](C(=O)N[C@@H](Cc1ccccc1)C(=O)N[C@@H](C)C(=O)N[C@@H](C)C(=O)O)C(C)C` [PPI-391] (Cholyl-LVFAA-OH), the inhibition at 100 % at Aβ1-40 [2] was 40%.

Regarding `CC(C)C[C@H](NC(=O)CC[C@@H](C)[C@H]1CC[C@H]2[C@@H]3[C@H](O)C[C@@H]4C[C@H](O)CC[C@]4(C)[C@H]3C[C@H](O)[C@]12C)C(=O)N[C@H](C(=O)N[C@@H](Cc1ccc(O)c(I)c1)C(=O)N[C@@H](Cc1ccccc1)C(=O)N[C@@H](C)C(=O)O)C(C)C` [PPI-396] (Cholyl-LV[Tyr(3-I)]FA-OH), the inhibition at 100 % at Aβ1-40 [2] was determined as 100%.

In the case of `CC(C)C[C@H](NC(=O)CC[C@@H](C)[C@H]1CC[C@H]2[C@@H]3[C@H](O)C[C@@H]4C[C@H](O)CC[C@]4(C)[C@H]3C[C@H](O)[C@]12C)C(=O)N[C@H](C(=O)N[C@@H](Cc1ccccc1)C(=O)N[C@@H](Cc1ccc(O)c(I)c1)C(=O)N[C@@H](C)C(=O)O)C(C)C` [PPI-397] (Cholyl-LVF[Tyr(3-I)]A-OH), on Aβ1-40 [2], the inhibition at 100 % is 95%.

With `CC(C)[C@H](NC(=O)[C@H](C)NC(=O)CC[C@@H](C)[C@H]1CC[C@H]2[C@@H]3[C@H](O)C[C@@H]4C[C@H](O)CC[C@]4(C)[C@H]3C[C@H](O)[C@]12C)C(=O)N[C@@H](C)C(=O)N[C@@H](Cc1ccccc1)C(=O)N[C@@H](C)C(=O)O` [PPI-400] (Cholyl-AVAFA-OH), the inhibition at 100 % at Aβ1-40 [2] was -15%.

Take `CC(C)C[C@H](NC(=O)CC[C@@H](C)[C@H]1CC[C@H]2[C@@H]3CC[C@@H]4C[C@H](O)CC[C@]4(C)[C@H]3C[C@H](O)[C@]12C)C(=O)N[C@H](C(=O)N[C@@H](Cc1ccccc1)C(=O)N[C@@H](Cc1ccccc1)C(=O)N[C@@H](C)C(=O)O)C(C)C` [PPI-424]: the “% Inucl'n (percent reduction in maximum turbidity)” value at Aβ1-40 [1] is -114%.

In the case of `CC(C)C[C@@H](NC(=O)CC[C@@H](C)[C@H]1CC[C@H]2[C@@H]3[C@H](O)C[C@@H]4C[C@H](O)CC[C@]4(C)[C@H]3C[C@H](O)[C@]12C)C(=O)N[C@@H](C(=O)N[C@H](Cc1ccccc1)C(=O)N[C@H](Cc1ccccc1)C(=O)N[C@H](C)C(=O)O)C(C)C` [PPI-433], on Aβ1-40 [2], the inhibition at 100 % was 27%.

Regarding `CC(C)C[C@H](NC(=O)OC(C)(C)C)C(=O)N[C@H](C(=O)N[C@@H](Cc1ccccc1)C(=O)N[C@@H](Cc1ccccc1)C(=O)N[C@@H](C)C(=O)O)C(C)C` [PPI-435], the “% Inucl'n (percent reduction in maximum turbidity)” value at Aβ1-40 [1] is listed as -5%. At Aβ1-40 [1] (Table V, 100 mole % inhibitor relative to Aβ1-40), the “ΔLag (ratio of lag time with test compound to lag time of control)” value is reported as 3.0.

As to AEDVGSNKGAIIGLM [PPI-229, Aβ21-35], the “% Inhibition of Plateau” value on Aβ1-40 [1] was ~ 0%. The “Fold Increase in Lag Time” value at Aβ1-40 [1] (setting [3]) is ~ 1 fold.

HDSGYEVHHQKLVFF [PPI-226, Aβ6-20]: on Aβ1-40 [1], the “% Inhibition of Plateau” value is on record as 76%. Also, the “Fold Increase in Lag Time” value on Aβ1-40 [1] (setting [3]) was 1.66 fold.

As to KLVFFAEDVGSNKGA [PPI-228, Aβ16-30], on Aβ1-40 [1], the “% Inhibition of Plateau” value is 100%. In addition, the “Fold Increase in Lag Time” value at Aβ1-40 [1] (setting [3]) is on record as above 4.5 fold.

Take SNKGAIIGLMVGGVV [PPI-230, Aβ26-40]: the “% Inhibition of Plateau” value at Aβ1-40 [1] is on record as ~ 0%. The “Fold Increase in Lag Time” value on Aβ1-40 [1] (setting [3]) turned out to be 0.8 fold.
